Source: US20140065241A1, “USES OF (-)-PERHEXILINE” (Adelaide Research & Innovation Pty Ltd, priority 2012, published 2014)
pEC50: −log10 of the molar value.

Columns and labels:
[1] = system: rat isoprenaline model of heart failure; test: Plasma troponin T in rat isoprenaline model of heart failure; type: in vivo; conditions: DA rats; 2 weeks pre-treatment 200 mg/kg/day; isoprenaline 50 mg/kg i.p.; plasma 3 hr after
Experimental: The effect of racemic perhexyline, (+)-perhexyline and (−)-perhexyline on myocardial damage in a rat isoprenaline model of heart failure, using Troponin T as an indirect measure of myocardial damage was investigated. The use of a rat isoprenaline model of heart failure is as described in Teerlink, J R et al. (1994) “Progressive ventricular remodeling in response to diffuse isoproterenol-induced myocardial necrosis in rats” Circ Res, 75: 105-13.
DA rats were treated for 2 weeks with vehicle or 200 mg/kg/day of racemic, (+)- or (−)-perhexyline maleate, on day 15 myocardial necrosis was induced by i.p. injection of 50 mg/kg isoprenaline, with a second group of controls receiving an i.p. injection of saline (n=5). Cardiac troponin T levels were measured in plasma collected 3 hr following treatment by venipuncture of the tail vein.

[2] = clinical use of racemic drug; cited from earlier work
[3] = system: Dark Agouti (DA) rats; test: Histological (electron microscopy) assessment of hepatic lipid and glycogen content after 8 weeks of dosing; type: in vivo, rat; conditions: for hepatic glycogen content / hepatic lipid content: 200 mg/kg daily for 8 weeks, vs vehicle, 200 mg/kg
Experimental: Adult female Dark Agouti (DA) rats (n=4 in each group) were administered 200 mg/kg daily of vehicle, racemic-, (+) or (−)-perhexyline maleate for a period of 2 months. The perhexyline maleate compound was administered mixed with peanut paste and coated onto standard rat chow. On day 56 of dosing, animals were anesthetized and blood was collected via a cardiac puncture in order to determine the concentrations of perhexyline enantiomers. Animals were then euthanized and hepatic, cardiac and neuronal tissues were harvested in order to determine perhexyline enantiomer and metabolite tissue concentrations and morphological changes. Tissues were cut in half and either immediately snap frozen in liquid nitrogen or placed into fixative solution for electron microscopy analysis. Tissue was dissected into cubes of approximately 0.5 mm in each dimension and was fixed for one hour in electron microscopy (EM) fixative (4% formaldehyde and 1.5% glutaraldehyde in sodium cacodylate buffer, pH 7.2). The fixed tissue was post-fixed in 2% osmium tetroxide in sodium cacodylate buffer, en bloc stained with 2% uranyl acetate and dehydrated through 70%, 90% and 100% ethanol. Then, the tissue was processed through 1,2-epoxypropane, a 50/50 mixture of 1,2-epoxypropane and Procure 812 resin (Electron Microscopy Sciences, Fort Washington, USA) and two changes of 100% resin. Tissue and resin were transferred to Beem capsules and placed in an oven overnight at 90° C. Survey sections of tissue blocks were cut with glass knives and stained with Toluidine Blue. Thin sections were cut at approximately 100 nm thickness on a Porter-Blum ultramicrotome (Sorvall, Newtown, USA) using a diamond knife (Micro Star Technologies, Huntsville, USA). Thin sections were stained with Reynolds' lead citrate and examined in a Hitachi H-600 transmission electron microscope (Tokyo, Japan 1983). Glycogen and lipids were identified and total content was measured as a percentage of the field of view.

[4] = Perhexyline enantiomer concentrations in plasma, liver and heart; type: in vivo, rat; conditions: DA rats; for plasma concentration: pure enantiomer 200 mg/kg daily for 8 weeks
Experimental: Adult female Dark Agouti (DA) rats (n=4 in each group) were administered 200 mg/kg daily of vehicle, racemic-, (+) or (−)-perhexyline maleate for a period of 2 months. The perhexyline maleate compound was administered mixed with peanut paste and coated onto standard rat chow. On day 56 of dosing, animals were anesthetized and blood was collected via a cardiac puncture in order to determine the concentrations of perhexyline enantiomers. Animals were then euthanized and hepatic, cardiac and neuronal tissues were harvested in order to determine perhexyline enantiomer and metabolite tissue concentrations and morphological changes. Tissues were cut in half and either immediately snap frozen in liquid nitrogen or placed into fixative solution for electron microscopy analysis.
Plasma, liver and hear concentrations were measured in Dark Agouti rats treated for 8 weeks with 200 mg/kg/day of (+)-, (−)- or racemic-perhexyline (animals as described in Example 2) using the method of Davies et al., Journal of Chromatography B, 832 (2006) 114-120.
The data are shown in FIGS. 6A and 6B with concentrations adjusted to the equivalent of a 100 mg/kg enantiomeric dose.

[5] = system: Dark Agouti rats; test: Peripheral neural function by von Frey filament testing (paw withdrawal threshold); type: in vivo, rat; conditions: DA rats treated for 8 weeks, vs vehicle
Experimental: At 56 days, neuronal function was measured prior to euthanasia using von Frey filament testing. The thickness of each filament corresponds to a specific amount of pressure (in grams). Each animal was placed in a specifically designed plastic container, with the bottom replaced by mesh flooring. The animal was left for 10-15 minutes to settle into its new environment. In ascending order, von Frey filaments were applied from beneath the mesh flooring to the plantar surface of the paw until the filament buckled and was held there for a total of 10 seconds. A positive response was noted if the paw was withdrawn within the 10-second period. If a filament induced 6 positive responses, the grams corresponding to that filament were recorded as the paw withdrawal threshold.
To test the effect of each enantiomer on peripheral neural function, a Von Frey hairs model was used.

[6] = molecular target: T1, human neutrophil NOX2 (Homo sapiens, UniProt P04839); test: Inhibition of ex vivo superoxide formation by NOX2 in human neutrophils; type: cell-based; conditions: neutrophils from 11 healthy young volunteers
T1 construct: Using neutrophils from 11 healthy young volunteers; endogenous in cells; host or cells: human neutrophils from healthy volunteers
T1 sequence (P04839 2-570 limits assumed): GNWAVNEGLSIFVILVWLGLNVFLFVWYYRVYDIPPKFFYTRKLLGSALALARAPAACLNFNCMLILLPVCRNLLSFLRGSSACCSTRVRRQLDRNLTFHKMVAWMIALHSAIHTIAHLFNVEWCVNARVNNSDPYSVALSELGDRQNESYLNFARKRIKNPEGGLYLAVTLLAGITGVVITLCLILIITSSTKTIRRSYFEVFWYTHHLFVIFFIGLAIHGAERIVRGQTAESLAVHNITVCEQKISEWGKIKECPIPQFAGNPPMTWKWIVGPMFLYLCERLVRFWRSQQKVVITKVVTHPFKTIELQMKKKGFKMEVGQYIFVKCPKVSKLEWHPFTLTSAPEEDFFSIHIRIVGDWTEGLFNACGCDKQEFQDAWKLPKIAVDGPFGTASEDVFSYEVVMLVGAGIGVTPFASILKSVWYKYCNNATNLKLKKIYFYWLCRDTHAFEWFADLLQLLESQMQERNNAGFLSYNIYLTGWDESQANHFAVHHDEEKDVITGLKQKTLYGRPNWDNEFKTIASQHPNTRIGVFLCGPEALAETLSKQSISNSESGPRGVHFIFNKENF
T1 sequence (P13498 2-195 partner limits assumed): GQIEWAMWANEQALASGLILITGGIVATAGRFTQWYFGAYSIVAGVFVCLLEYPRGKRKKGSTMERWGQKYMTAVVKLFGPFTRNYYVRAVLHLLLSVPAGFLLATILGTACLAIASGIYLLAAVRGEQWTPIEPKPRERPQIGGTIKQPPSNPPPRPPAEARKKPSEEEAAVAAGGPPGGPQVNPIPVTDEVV
Source text: As an index of anti-inflammatory and nitric oxide-sparing potential, the relative potency of the enantiomers as inhibitors of ex vivo superoxide formation by NOX2 was investigated in human neutrophils.
Whilst this enantioselectivity is consistent with different therapeutic indices for the enantiomers, it can be seen that both still contribute to perhexyline's anti-inflammatory effects.

[7] = system: rat isoprenaline model; test: Histological assessment of isoprenaline-induced myocardial injury; type: in vivo; conditions: DA rats; 2 weeks pre-treatment 200 mg/kg/day; isoprenaline 50 mg/kg
Experimental: DA rats were treated for 2 weeks with vehicle or 200 mg/kg/day of racemic, (+)- or (−)-perhexyline maleate, on day 15 myocardial necrosis was induced by i.p. injection of 50 mg/kg isoprenaline, with a second group of controls receiving an i.p. injection of saline (n=5). Cardiac troponin T levels were measured in plasma collected 3 hr following treatment by venipuncture of the tail vein. […] The severity and extent of myocardial injury were assessed by a pathologist who was blinded to the treatment, and classified as: 0—no change; 1—mild (single mild focus of myocyte damage or multiple small foci with mild inflammatory cell infiltrate); 2—moderate (multiple larger foci of myocyte damage with moderate inflammatory cell infiltrate) and 3—severe (multiple larger foci of myocyte damage with severe inflammatory cell infiltrate or broad zone of necrosis with extensive inflammation). Results were analysed by dividing animals into two response groups 0-1: no or mild >1: moderate to severe.

[8] = system: TXNIP; test: Myocardial TXNIP staining (immunohistochemistry) after isoprenaline; type: in vivo, rat; conditions: DA rats; 2 weeks pre-treatment 200 mg/kg/day; isoprenaline 50 mg/kg
Source text: CONT; *=P<0.05 c.f. ISO; ̂=P=0.05 c.f. ISO. […] T×NIP is a regulatory protein which couples substrate utilization and redox state. Increased expression of T×NIP is associated with increased oxidative stress, decreased insulin secretion, decreased glucose uptake and suppression of PPARα (a major nuclear transcription factor regulating lipid metabolism). Thus, both (−)-perhexyline and (+)-perhexyline may also exert cardioprotection via inhibition of T×NIP.

[9] = system: pyruvate dehydrogenase (PDH); test: Total and phosphorylated pyruvate dehydrogenase in heart tissue by Western blots; type: in vivo; conditions: DA rat heart; 2 weeks 200 mg/kg/day; isoprenaline 50 mg/kg
Experimental: DA rats were treated for 2 weeks with vehicle or 200 mg/kg/day of racemic, (+)- or (−)-perhexyline maleate, on day 15 myocardial necrosis was induced by i.p. injection of 50 mg/kg isoprenaline (HCl salt), with a second group of controls receiving an i.p. injection of saline (n=5-8). Total and phosphorylated pyruvate dehydrogenase in heart tissue was measured by Western blots.

[10] = 8 weeks 200 mg/kg/day, dose-adjusted

Compound | effect on isoprenaline-induced rise in plasma troponin T [1] | plasma concentration at which severe adverse effects (hepatotoxicity, peripheral neuropathy) are typically seen [2] | recipients with adverse effects [2] | hepatic glycogen content [3] | hepatic lipid content [3] | hepatic steatosis ([3]; 8 weeks, plasma concentrations similar to those causing hepatotoxicity in humans) | distribution into liver, pure enantiomer compared to the racemic formulation [4, 10] | plasma concentration [4] [ng/mL] | neural sensory function (Von Frey hairs) [5] | pEC50 [6] | isoprenaline-induced myocardial damage (histological score) [7] | isoprenaline-induced increase in myocardial TXNIP staining [8] | tissue distribution, pure enantiomer vs as part of the racemic formulation [4, 10] | PDH deactivation (measured as phosphorylated PDH) [9] | inhibition of PDH deactivation compared with (+)-perhexyline [9] | total PDH expression [9]
C1CCC(C(CC2CCCCN2)C2CCCCC2)CC1 (racemic) [racemic perhexyline, 2-(2,2-dicyclohexylethyl) piperidine] | not affected | greater than 0.6 mg/L | more than 60% |  |  |  |  |  |  |  |  |  |  |  |  | 
C1CCC(C(CC2CCCCN2)C2CCCCC2)CC1 (single isomer, unassigned; (+)) [(+)-perhexyline, (+)-enantiomer of perhexyline] | not affected |  |  | appeared to decrease | significantly increased | causes hepatic steatosis | significantly increased | 520 to 800 | significant decline | 5.74 | only partially attenuated | attenuated |  |  |  | 
C1CCC(C(CC2CCCCN2)C2CCCCC2)CC1 (single isomer, unassigned; (-)) [(−)-perhexyline, (−)-enantiomer of perhexyline] | exacerbated |  |  | significantly increased | no effect |  |  | 220 to 390 | did not | 5.89 | attenuated | attenuated | similar | extremely potent inhibitor | more potent | did not affect
